In patent US20200216492A1, “USE OF C-TERMINALLY EXTENDED PEPTIDES TO DISRUPT INHIBITOR NK CELL RECEPTOR INTERACTIONS WITH MHC I” (La Jolla Institute for Allergy and Immunology, priority 2016, published 2020):
“Also recorded” adds a separate entry of the source.

Columns and labels:
HLA-A*02:01 = target: T1, HLA-A*02:01 (Homo sapiens, UniProt P04439, D140Y/D185E/D98H/E176V/E277Q/G131W/G231S/I119V/I121R/I166T/I218V/L300P/L318F/N151K/N90K/P208A/P217A/Q86G/Q94H/R138H/R169H/T345S); test: Thermal denaturation assay (differential scanning fluorimetry) of HLA-A*02:01-β2m-peptide complexes; type: binding; details: for relative stability of HLA-peptide complex: thermal denaturation
T1 construct: HLA-A*02:01 class I heavy chain ectodomain (residues 21-274); made in house
Description: HLA-A*02:01-β2m-peptide complexes with the various different peptides were analyzed for thermal denaturation by differential scanning fluorimetry using a LightCycler 480 (Roche). HLA-A*02:01-β2m-peptide complexes with different peptides at 100 μM in reaction buffer (20 mM Tris-HCl pH 7.5, 150 mM NaCl) were used as stock solutions. Each reaction mixture constituted of 1-2 μl protein complex stock solution, 2l of SYPRO Orange dye (100×, Invitrogen) made up to 20 μl in reaction buffer in a 96-well white plate compatible with the instrument. A temperature gradient from 20° C.-85° C. at steps of 0.06° C./sec and 10 acquisitions/° C. was used for the experiment. Each experiment with individual protein-peptide complex was repeated thrice. A melt curve of the total fluorescence of the run was plotted against temperature. The minima of the first derivative of the melt curve from raw fluorescence data (temperature differential of absolute fluorescence versus temperature) provided the meting temperature (Tm) for individual HLA-A*02:01-β2m peptide complexes (inflection point of the melt curve).
To determine the relative stability of the individual HLA-A*02:01-peptide complexes the inventors followed their thermal denaturation by differential scanning fluorimetry. The melting temperatures (Tm) obtained from the melt curves allowed the inventors to compare the stability of the different complexes (FIG. 3).

[1] = system: HLA-B*58:02 transfected 721.221 cells; test: Cytotoxicity assay using KIR3DL1 transfected YTS cells and peptide-pulsed 721.221 target cells; type: cell-based; details: peptide 100 μM; KIR3DL1 YTS effectors; E:T 10:1; 2-4 hrs; preliminary study
Description: The ability of KIR3DL1 or KIR2DL1 transfected YTS cells to kill HLA expressing 721.221 target cells is tested. Since YTS cells are devoid of any inhibitory KIR, expression of a single KIR will tolerize YTS cells against the 721.221 target cell expressing the allele-matched HLA-B*58:02 (instead of HLA-B*57:01 used for SPR and crystallography) or HLA-C*04:01. HLA-B*58:02 is identical in sequence in the binding region for KIR3DL1 and reported to bind KIR3DL1 allele. 721.221/HLA-C*04:01 cells expressing a TAP inhibitor as well as the corresponding KIR2DL1 YTS transfectants have been obtained. In these 721.221 cells, peptides have to be loaded on the empty HLA-C on the cell surface. The advantage of this system is that the degree of inhibition can be titrated using different concentration of peptides. Target cell killing is assessed using a europium-based fluorescence killing assay as described (67). In this setup, the antibody IPH2101 serves as a positive control for killing, and the efficacy of extending peptides to induce killing is compared. IPH2101 is expressed, for which the sequence is available (Patent application: PCT/US2013/063068), similar to Fc fusion proteins in insect cells. […]
Cytotoxicity assay using KIR transfected YTS cells (FIG. 21) has been established. […] Finally, fluorescence was measured in a Perkin Elmer EnVision™ time-resolved fluorometer. […]

[2] = system: KIR3DL1 expressing YTS cells; test: HLA-B*57:01/peptide tetramer staining of KIR3DL1 transfected YTS cells (flow cytometry); type: cell-based; details: KIR3DL1 positive and negative YTS cells; 10, 50 and 100 μg/ml tetramer; 30 min on ice; preliminary study
Description: KIR3DL1 negative (top) and positive (bottom) YTS cells were analyzed for their staining using the indicated HLA-B/peptide tetramer. Binding of the tetramer to KIR3DL1 negative cells likely indicates binding of the tetramer to another receptor, such as 2B4 and, therefore, different KIR transfected cells, such as K562 cells will be used next.
In parallel, whether the HLA-tetramers can stain K562 cells that have been transfected with the corresponding allele-matched KIRDL receptor is tested. Without being limited to any particular theory, it is expected that HLA tetramers presenting the core peptide will stain K562 cells, while staining with tetramers presenting the C-terminally extended peptides is greatly impaired and will overlap with the isotype control. Appropriate anti KIR antibodies are used as positive control (Anti-KIR3DL1 clone DX9 and anti-KIR2DL1 clone HP-MA4 from Biolegend). […]

HLA-C*03:07 = HLA-C*03:07 (Homo sapiens, UniProt P10321, A176E/A330V/A97T/C25G/C350S/D114A/D33Y/E197K/L119I/L127V/L171W/L218V/M285V/M309V/M331V/N104K/P208H/Q277E/Q291P/R243W/R45H/S101N/S123Y/S140Y/S297R/S48A/T118I/T187L/T329A/T363A/V319A); test: Refolding of HLA-C*03:07 with peptides (SEC, SDS-PAGE, MALDI-TOF); type: binding; details: gel filtration
From the text: Note that A280 scale is different between the three panels.
Core peptides were chosen that have been crystallized in complex with HLA-B as well as HLA-C and designed variants containing C-terminal extensions (Table 3). […] HLA-C can be optimized while producing more HLA-B complexes for crystallization and structure determination using established methods. Crystallization is not major problem, since only HLA I-peptide complexes are crystallized and not ternary complexes containing a receptor. For HLA-A2*02:01, all 9 complexes were successfully crystallized thereby establishing a routine procedure. Structure determination is performed using molecular replacement (MR), using available reference structures.

KIR2DL1-Fc = KIR2DL1-Fc binding to immobilized HLA-peptide complexes by BLI (Octet RED96); details: 2 μM KIR2DL1-Fc, biotinylated complex on SA sensor tip
From the text: Binding to buffer only was used for background subtraction.
Synthetic DNA constructs of KIR3DL1 (HLA-B*57:01) and KIR2DL1 (HLA-C*04:01) are cloned and expressed as Fc-fusion constructs in SF9 insect cells. HLA-B*57:01 and […] are refolded with both core and extending peptides and captured on a Strepavidin sensor chip for SPR analysis or a SA sensor tip for BLI analysis as for HLA-A*02:01. […] KIRDL-Fc fusion proteins are, therefore, used to measure the binding affinity, since their bivalency will increase overall binding affinity. […] Further, KIRDL-Fc fusion proteins are immobilized using an anti-human Fc antibody capture chip (GE Healthcare) and the binding of HLA-tetramers to the immobilized KIRDL receptors measured. This increases affinity even further (tetra-valency versus bivalency). […] The C-terminally extended peptides all disrupt KIR2DL1 binding, regardless of whether they induce the “lysine lift” or the “tyrosine swing” (FIG. 19). […] This is proof of concept that structural alterations around the F pocket of HLA alleles that form the primary binding site for KIRL abrogate receptor binding.

HLA-A*02:01 mutants = test: Refolding of HLA-A*02:01 position 80 mutants with extending peptides (SEC); type: binding; details: increase in incorrectly folded heavy chain as indicator, preliminary data
Description: Refolding efficiency is judged by comparing peak high (at 45 kDa) with that of the preceding oligomeric peak.
It is possible that replacing T80 with amino acids Ile, Lys, and Asn as found in other common alleles may affect refolding. […] Whether a flexible F pocket in HLA-C*03:07 can be created was tested by exchange against the amino acids from HLA-A*02:01, either Thr80 or the combination of Thr80 and Thr142 together. Other amino acids at position 80 or mutate other alleles at position 80 and 142 were introduced as necessary.

Sequence of KIR2DL1-Fc (P43626 22-245 limits assumed): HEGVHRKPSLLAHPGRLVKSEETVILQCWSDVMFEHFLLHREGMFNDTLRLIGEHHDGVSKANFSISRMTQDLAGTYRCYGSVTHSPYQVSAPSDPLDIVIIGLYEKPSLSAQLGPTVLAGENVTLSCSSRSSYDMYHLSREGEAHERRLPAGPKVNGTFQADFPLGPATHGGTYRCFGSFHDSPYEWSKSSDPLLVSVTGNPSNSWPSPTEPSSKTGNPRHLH

GLLPELPAVGGNE
relative stability of HLA-peptide complex (HLA-A*02:01): as stable as

LSSPVTKSFDGK [L12K]
induction of YTS NK cell killing of target cells [1]: induce YTS NK cell killing; also recorded: appears to induce killing | binding of Alexa Fluor-647 HLA-B*57:01/peptide tetramer to YTS cells [2]: bound to YTS cells, regardless whether KIR3DL1 was expressed or not

GAVDPLLAL [G9L, reference compound]
refolding of HLA-C*03:07 with peptide (HLA-C*03:07): protein complex of proper size was observed

YFDPANGKFDN [Y11N]
KIR2DL1-Fc binding to HLA-C*04:01-peptide complex (KIR2DL1-Fc): abrogated

YFDPANGKF [Y9F, reference compound]
KIR2DL1-Fc binding to HLA-C*04:01-peptide complex (KIR2DL1-Fc): strong binding signal

LSSPVTKSFK [L10K]
induction of YTS NK cell killing of target cells [1]: does not induce any killing

GLKEGIPALDN [G11N, T. gondii C-terminally extending peptide]
refolding efficiency of HLA-A*02:01 position 80 mutants with peptide (order of residues) (HLA-A*02:01 mutants): Ile80 (HLA-B)>Thr80 (HLA-A)>Lys80 (HLA-C*04:01)>Asn80 (HLA-C*03:07)

GAVDPLLALD [G10D]
refolding of HLA-C*03:07 with peptide (HLA-C*03:07): protein complex of proper size was observed

YLSPIASPLLDGKSLR [T. gondii C-terminally extending peptide]
difference in Tm between complex with extended peptide and with nested peptide (HLA-A*02:01; extended versus equivalent nested peptide): about 7 °C

YFDPANGKFK [Y10K]
KIR2DL1-Fc binding to HLA-C*04:01-peptide complex (KIR2DL1-Fc): abrogated

GLKEGIPAL
melting temperature (Tm) of HLA-A*02:01-peptide complex (HLA-A*02:01; differential scanning fluorimetry, SYPRO Orange, 20-85 °C): 63 °C | relative stability of HLA-peptide complex (HLA-A*02:01): less stable complex as compared to peptide GLLPELPAV; also recorded: as stable as those with longer peptides

LSSPVTKSF [L9F, core self-peptide for HLA-B*57:01, reference compound]
KIR2DL1-Fc binding to allele-mismatched HLA-B*57:01-peptide complex (KIR2DL1-Fc): does not bind | binding of Alexa Fluor-647 HLA-B*57:01/peptide tetramer to YTS cells [2]: bound to YTS cells, regardless whether KIR3DL1 was expressed or not
